Measurements published in ChEMBL document CHEMBL1201862, “PubChem BioAssay data set” (2004).
Calls of active or inactive are those of the source.

Columns and labels:
[1] = target: T1, fMet-Leu-Phe receptor (Homo sapiens, UniProt P21462); test: FPR ligands, dose response (AID 519); format: functional
T1 sequence (P21462 whole entry): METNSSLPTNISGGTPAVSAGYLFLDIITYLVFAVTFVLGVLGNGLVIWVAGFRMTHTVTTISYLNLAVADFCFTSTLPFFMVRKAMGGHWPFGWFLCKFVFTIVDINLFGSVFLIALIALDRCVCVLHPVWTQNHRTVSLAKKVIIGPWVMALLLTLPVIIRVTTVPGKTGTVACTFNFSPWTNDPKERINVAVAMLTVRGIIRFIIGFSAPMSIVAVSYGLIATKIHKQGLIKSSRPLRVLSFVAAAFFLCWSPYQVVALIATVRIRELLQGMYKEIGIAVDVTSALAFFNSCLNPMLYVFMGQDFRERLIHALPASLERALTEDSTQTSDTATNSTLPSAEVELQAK

[2] = target: G-protein coupled receptor 55 (Homo sapiens, UniProt Q9Y2T6); test: GPR55 antagonists blocking LPI-driven arrestin recruitment, primary screen, imaging, U2OS, beta-arrestin-GFP, LPI agonist (AID 2013); format: functional;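 also: antagonist potency measured as reduced agonist-driven arrestin aggregation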
[3] = target: Prothrombin (Homo sapiens, UniProt P00734); test: Thrombin 1536 HTS Dose Response Confirmation. [Related pubchem assays: 1046 (Thrombin 1536 HTS; hits were confirmed in this assay)]; format: functional
[4] = target: Cytochrome P450 3A4 (Homo sapiens, UniProt P08684); settings: Potency;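 also: confirmatory qHTS run detecting inhibitors and substrates of CYP3A4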
[5] = target: T2, Coagulation factor XII (Homo sapiens, UniProt P00748); format: functional;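 also: activated factor XIIa alpha cleaving a fluorogenic AMC peptide substrate; inhibitor potency from loss of enzyme activity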
T2 sequence (P00748 whole entry): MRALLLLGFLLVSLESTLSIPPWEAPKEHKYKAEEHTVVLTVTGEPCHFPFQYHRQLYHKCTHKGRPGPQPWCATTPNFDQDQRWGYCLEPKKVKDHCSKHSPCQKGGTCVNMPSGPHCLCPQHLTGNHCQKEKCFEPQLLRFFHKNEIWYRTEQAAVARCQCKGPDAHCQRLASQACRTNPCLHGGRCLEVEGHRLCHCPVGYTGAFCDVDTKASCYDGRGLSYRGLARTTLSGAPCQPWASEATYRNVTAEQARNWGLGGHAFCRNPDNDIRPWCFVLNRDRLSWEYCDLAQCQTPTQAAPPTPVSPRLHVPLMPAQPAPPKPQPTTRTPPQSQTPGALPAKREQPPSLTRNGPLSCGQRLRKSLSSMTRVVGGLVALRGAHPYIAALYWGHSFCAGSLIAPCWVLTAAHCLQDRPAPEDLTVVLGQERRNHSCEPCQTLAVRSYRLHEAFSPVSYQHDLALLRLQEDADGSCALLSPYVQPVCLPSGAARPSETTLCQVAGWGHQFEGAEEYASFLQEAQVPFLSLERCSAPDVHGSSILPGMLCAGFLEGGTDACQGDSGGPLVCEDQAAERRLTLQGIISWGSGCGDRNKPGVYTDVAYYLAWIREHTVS

[6] = target: Nonstructural protein 1 (Influenza A virus, UniProt Q194T2); format: functional, Influenza A virus (A/California/07/2009(H1N1))
[7] = target: T3, Protein skinhead-1 (Caenorhabditis elegans, UniProt P34707); format: functional
T3 sequence (P34707 whole entry): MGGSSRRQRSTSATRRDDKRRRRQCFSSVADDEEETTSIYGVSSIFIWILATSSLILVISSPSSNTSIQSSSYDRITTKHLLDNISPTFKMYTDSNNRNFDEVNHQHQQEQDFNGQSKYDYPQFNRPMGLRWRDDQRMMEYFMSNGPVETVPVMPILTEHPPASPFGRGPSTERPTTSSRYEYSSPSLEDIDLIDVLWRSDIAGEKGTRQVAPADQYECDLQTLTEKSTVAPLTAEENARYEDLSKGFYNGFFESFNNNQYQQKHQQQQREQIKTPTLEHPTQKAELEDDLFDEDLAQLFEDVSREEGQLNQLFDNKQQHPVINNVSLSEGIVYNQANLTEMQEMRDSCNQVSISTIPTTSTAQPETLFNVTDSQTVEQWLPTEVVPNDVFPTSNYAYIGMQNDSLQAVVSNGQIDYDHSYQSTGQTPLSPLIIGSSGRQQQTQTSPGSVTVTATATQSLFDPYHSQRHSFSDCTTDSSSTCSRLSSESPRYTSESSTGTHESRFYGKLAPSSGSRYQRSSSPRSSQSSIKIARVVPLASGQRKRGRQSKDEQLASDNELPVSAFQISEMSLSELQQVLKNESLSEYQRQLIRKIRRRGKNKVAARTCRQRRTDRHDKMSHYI

[8] = Luminescence Cell-Based Dose Response HTS to Identify Inhibitors of 5'UTR Stem-Loop Driven Prion Protein mRNA Translation in H4 Neuroglioblastoma Cells. [Related pubchem assays: 1827 (Project Summary), 1813 (Primary HTS)]; format: functional
[9] = cytotoxicity in HEK-293T cells, dose response, cytotoxicity control for TCR NF-kB inhibitor project, luminescence, T-cell screen hits (AID 489026); format: functional, cell-based;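 also: cells exposed to compound about 14 hours before the viability readout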
[10] = inhibitors of firefly luciferase expression or activity, dose response, H4 neuroglioma cells, luminescence (AID 1990); format: functional, cell-based
[11] = target: T4, Heat shock factor protein 1 (Mus musculus, UniProt P38532); test: inhibition of MG132-induced HSE-luciferase signal, confirmation, cell-based, NIH3T3, luminescence, dose retest (AID 2382); format: functional;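 also: NIH3T3 fibroblasts with HSF1-driven luciferase reporter stressed by proteasome inhibitor MG132; luminescence from HSF1-driven luciferase expression after 8 hours of MG132 stress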
T4 sequence (P38532 whole entry): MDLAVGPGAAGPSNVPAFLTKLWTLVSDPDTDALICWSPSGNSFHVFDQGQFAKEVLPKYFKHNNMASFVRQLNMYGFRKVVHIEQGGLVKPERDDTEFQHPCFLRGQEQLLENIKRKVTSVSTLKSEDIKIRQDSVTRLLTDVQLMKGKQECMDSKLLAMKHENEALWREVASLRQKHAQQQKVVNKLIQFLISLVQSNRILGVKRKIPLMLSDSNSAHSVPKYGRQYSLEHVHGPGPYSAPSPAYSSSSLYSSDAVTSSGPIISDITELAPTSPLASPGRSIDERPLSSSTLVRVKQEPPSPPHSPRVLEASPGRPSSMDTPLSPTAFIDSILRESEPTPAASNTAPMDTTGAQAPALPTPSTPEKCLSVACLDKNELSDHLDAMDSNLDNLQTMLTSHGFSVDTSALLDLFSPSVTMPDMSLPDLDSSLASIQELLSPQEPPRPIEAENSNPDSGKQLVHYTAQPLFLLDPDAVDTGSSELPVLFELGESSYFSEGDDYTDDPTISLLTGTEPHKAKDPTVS

Cytochrome P450 3A4, sequence (P08684 whole entry): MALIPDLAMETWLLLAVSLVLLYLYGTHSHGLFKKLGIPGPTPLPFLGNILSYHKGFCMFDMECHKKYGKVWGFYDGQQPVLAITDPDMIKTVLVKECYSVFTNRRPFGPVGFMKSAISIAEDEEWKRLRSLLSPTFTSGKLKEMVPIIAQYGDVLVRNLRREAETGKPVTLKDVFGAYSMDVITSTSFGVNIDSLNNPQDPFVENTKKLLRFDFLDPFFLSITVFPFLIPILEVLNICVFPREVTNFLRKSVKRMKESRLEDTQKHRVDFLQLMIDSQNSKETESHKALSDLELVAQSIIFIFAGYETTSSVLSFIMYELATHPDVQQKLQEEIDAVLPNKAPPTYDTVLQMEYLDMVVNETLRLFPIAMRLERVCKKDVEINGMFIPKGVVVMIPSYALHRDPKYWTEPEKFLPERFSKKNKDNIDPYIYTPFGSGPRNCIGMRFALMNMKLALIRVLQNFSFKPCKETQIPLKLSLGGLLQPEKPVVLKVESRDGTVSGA
G-protein coupled receptor 55, sequence (Q9Y2T6 whole entry): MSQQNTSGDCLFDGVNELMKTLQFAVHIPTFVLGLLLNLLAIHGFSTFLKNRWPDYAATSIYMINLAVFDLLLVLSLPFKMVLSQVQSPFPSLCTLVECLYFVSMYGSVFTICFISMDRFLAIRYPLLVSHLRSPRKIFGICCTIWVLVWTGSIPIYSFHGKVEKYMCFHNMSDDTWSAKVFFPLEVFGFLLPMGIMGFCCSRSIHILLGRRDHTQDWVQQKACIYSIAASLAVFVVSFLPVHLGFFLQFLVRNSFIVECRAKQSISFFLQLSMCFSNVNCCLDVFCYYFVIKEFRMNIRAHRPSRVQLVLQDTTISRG
Nonstructural protein 1, sequence (Q194T2 whole entry): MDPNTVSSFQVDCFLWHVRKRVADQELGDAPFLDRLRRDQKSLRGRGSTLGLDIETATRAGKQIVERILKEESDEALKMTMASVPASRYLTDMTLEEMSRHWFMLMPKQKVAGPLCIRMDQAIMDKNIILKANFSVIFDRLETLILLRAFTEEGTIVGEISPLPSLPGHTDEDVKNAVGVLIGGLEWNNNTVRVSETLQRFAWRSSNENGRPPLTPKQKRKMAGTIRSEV

For CCc1nnc(NC(=O)CSc2nnc(-c3cc4ccccc4cc3O)n2CC)s1, the Ki [1] was 61.1 µM (inactive).

In the case of Clc1ccc2oc3c(Cl)ncnc3c2c1, the IC50 [2] is reported as 6.41 µM (active).

For CCCC(=O)n1nc(-c2cccnc2)nc1NCc1cccs1, the IC50 [3] was 0.00426 µM (active).

With CC(C)c1ccc2c(c1)CCC1C(C)(C(N)=O)CCCC21C (stereo not given) the AC50 [4] was 20 µM (inconclusive).

In the case of NC(=O)c1ccsc1NC(=O)c1nc(-c2ccccc2)n(-c2ccccc2)n1, the IC50 [3] is reported as 4.3 µM (active).

With COc1ccc(N(CC(=O)Nc2ccc3c(c2)OCCO3)S(=O)(=O)c2c(C)nn(C)c2C)cc1 the IC50 [5] was > 50 µM (inactive).

For CCN1C(=O)/C(=C2\C=Cc3cc(C)ccc3N2CC)OC1=S, the IC50 [6] was > 100 µM (active) and the IC50 [7] was > 100 µM (inactive).

For Cc1ccc(/C=C2\C(=O)NC(=O)N(CCc3ccc(F)cc3)C2=O)o1, the IC50 [2] was 3.55 µM (active).

For Cc1ccc2[nH]c(SCC(=O)Nc3cc(C(F)(F)F)ccc3N3CCOCC3)nc2c1, the EC50 [8] was 27.9 µM (active), the IC50 [9] was > 80 µM (inactive) and the EC50 [10] was 5.2 µM (inconclusive).

For O=C1NC2(CCCCC2)NN1c1ccccc1, the IC50 [3] was > 50 µM (not active).

In the case of COCCN(CCOC)c1nc(C)nc2c1nc(-c1ccccc1)n2CCN1CCCC1, the AC50 [4] is reported as 20 µM (inconclusive).

With O=C(C1=C(O)C(=O)N(CCc2ccccc2)C1c1cccnc1)c1ccco1 (stereo not given) the Ki [1] was > 66.7 µM (inactive).

In the case of CC(C)=CCC/C(C)=C/C=C/C1=CC2(C)CC1(C)C(/C=C(\C)CCC=C(C)C)CC2=O (stereo not given), the AC50 [4] is reported as 3.98 µM (inconclusive).

With O=C(CSC1CCCCC1)Nc1nccs1 the IC50 [3] was > 50 µM (not active).

In the case of O=C(O)CC(Cc1ccc(Br)cc1)C(=O)O (stereo not given), the EC50 [11] is reported as > 195 µM (not active) and the IC50 [5] is reported as > 50 µM (inactive).

For CC(CN1C(C)CCCC1C)OC(=O)c1ccc(Cl)cc1Cl (stereo not given), the IC50 [5] was > 50 µM (inactive).
